Laboratory results taken from US11028074B2, “CD73 inhibitors” (Eli Lilly and Company, priority 2018, dated 2021).
Blank lines part the entries; values can stand above or below the compound they belong to.

How the values were obtained:
CD73 = target: T1, CD73 (Homo sapiens, UniProt P21589); assay: LC/MS Based Assay for Measuring CD73 Activity in Human Serum; assay type: biochemical; parameters: from tissue; host or cells: normal human serum; settings: concentrations corrected with the fraction unbound, read-out: EC50, inhibition of CD73 activity in human serum
T1 sequence (P21589 27-549): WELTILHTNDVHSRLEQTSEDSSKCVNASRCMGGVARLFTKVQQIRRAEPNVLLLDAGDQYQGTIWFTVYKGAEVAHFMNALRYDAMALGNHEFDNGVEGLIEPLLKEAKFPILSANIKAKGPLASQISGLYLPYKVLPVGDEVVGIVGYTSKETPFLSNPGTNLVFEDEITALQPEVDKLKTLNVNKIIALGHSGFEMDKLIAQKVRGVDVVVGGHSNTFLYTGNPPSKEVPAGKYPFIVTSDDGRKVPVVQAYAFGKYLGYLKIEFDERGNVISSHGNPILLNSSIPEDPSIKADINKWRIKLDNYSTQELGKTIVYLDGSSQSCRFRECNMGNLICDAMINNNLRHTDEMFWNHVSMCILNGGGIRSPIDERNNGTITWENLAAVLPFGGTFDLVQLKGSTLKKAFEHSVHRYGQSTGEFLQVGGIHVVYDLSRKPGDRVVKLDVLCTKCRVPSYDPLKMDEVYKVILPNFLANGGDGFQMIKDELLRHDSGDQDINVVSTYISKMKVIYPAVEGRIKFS
Method: Fresh normal human blood is centrifuged at 1,500 g for 15 minutes at room temperature, and the upper fraction containing serum is collected. […] After incubation on ice for 60 min, […] (50 uM) is added to each well in the plate, and the plate is incubated at room temperature for 15 min. The plate is then placed on dry ice with addition of 200 uL/well of 17.3 TCA followed by shaking at 26 fps for 3 min with a plate-shaking machine (Qiagen). The plate is then centrifuged at 2940 g for 20 min at 4° C. […] After further centrifugation at 2940 g for 20 min at 4° C., 200 ul/well of the supernatant is used for analysis of ^13C10-^15N5-adenosine, ^13C10-^15N5-inosine and ^15N5-hypoxanthine by LC/MS as described above. For EC50 calculations, the concentrations of the CD73 inhibitor in the serum are corrected with the fraction unbound (%) derived from in silico models or experimentally.

murine CD73 = target: T2, murine CD73 (Mus musculus, UniProt Q61503); assay: Ex Vivo Target Inhibition Assay (mouse whole blood after oral dosing); assay type: in vivo; settings: read-out: Inhibition of AMP conversion to adenosine, Inhibition (%)
T2 construct: from tissue; host or cells: mouse whole blood (heparin) from orally dosed animals
T2 sequence (Q61503 29-551): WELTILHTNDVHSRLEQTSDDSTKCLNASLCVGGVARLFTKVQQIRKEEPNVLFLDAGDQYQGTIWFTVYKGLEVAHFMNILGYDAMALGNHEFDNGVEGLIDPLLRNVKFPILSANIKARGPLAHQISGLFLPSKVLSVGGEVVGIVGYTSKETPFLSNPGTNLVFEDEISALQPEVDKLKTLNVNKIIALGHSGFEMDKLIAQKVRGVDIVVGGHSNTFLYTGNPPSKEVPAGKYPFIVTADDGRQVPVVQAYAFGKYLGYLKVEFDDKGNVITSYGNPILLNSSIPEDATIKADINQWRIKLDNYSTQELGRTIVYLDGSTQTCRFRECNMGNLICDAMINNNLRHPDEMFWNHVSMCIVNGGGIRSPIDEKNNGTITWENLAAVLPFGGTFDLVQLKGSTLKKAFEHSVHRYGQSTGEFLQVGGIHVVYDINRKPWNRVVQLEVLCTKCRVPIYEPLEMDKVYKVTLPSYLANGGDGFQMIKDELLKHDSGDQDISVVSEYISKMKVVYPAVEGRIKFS
Method: The animals (6/group) are dosed orally with each compound formulated in 20% HPBCD (2-hydroxypropyl-β-cyclodextrin), pH 2 after tumors reach to approximately 400 mm^3.

human PBMCs or CD4 cells = assay: T Cell Suppression Assay (rescue of adenosine-mediated inhibition of T cell proliferation); assay type: cell-based; settings: for Rescue of T cell proliferation (%): AMP in medium, 68-70 hr
Method: Cells are placed in a 37° C. water bath for 10 min to pre-activate T cells. […] To test compounds using PBMCs, test compounds at various concentrations are prepared in cell normal growth media (125 μL) containing 400-600 μM AMP. […] Treated cells are cultured at 37° C., 5% CO2 for 68-70 hr.
Medium (100 μl) containing CD4 cells is transferred to and filtered through AcroPrep plates to another plate via centrifugation at 1500 g for 2 hr. Filtered medium (50 μl/well) is mixed with the same volume of 80% methanol, 1% NH4OH, and internal standards (250 ng/mL ^13C5-AMP and 250 ng/mL ^13C5-Adenosine) for LC-MS analysis of metabolites.
Treated PBMCs or CD4 cells are collected and stained for Flow Cytometry to quantify T cell proliferation.
Flow data are acquired by BD FACS Verse. Each fluorescence channel is appropriately compensated. The data are processed on FloJo ver. 7.6.5 with the following gating strategy: lymphocytes gated on FSC vs SSC dot plot; viable cells of lymphocytes gated on SSC vs Zombie Aqua dot plot; CD3 cells of viable lymphocytes gated on APC-Cy7 vs Zombie Aqua dot plot1; CD4 cell and CD8 cells of CD3 cells gated on APC vs Pacific Blue dot plot; CD4 and CD8 cells further gated on APC vs CFSE(FITC) and Pacific Blue vs CFSE(FITC) dot plots. Proliferation of CD4 and CD8 cells is analyzed by a proliferation tool.

CD4^+ T cells = assay: Cytokine Analysis (ELISA); assay type: cell-based, human
Method: CFSE labeled human PBMCs (600,000 cells/mL) or CD4 cells (500,000 cells/mL) are mixed with Dynabeads® Human T-Activator CD3/CD28 (Gibco, cat #11131D) at a ratio of 1:1 of cell/beads and human IL-2 (60 IU/ml, Roche, cat #: 11011456001). Cells are placed in a 37° C. water bath for 10 min to pre-activate T cells. PBMCs (125 μl/well) or CD4 cells (100 μl/well) are transferred to a 96 well plate (Costar 3799, Corning Inc.). To test compounds using PBMCs, test compounds at various concentrations are prepared in cell normal growth media (125 μL) containing 400-600 μM AMP. To test compounds using CD4 cells, test compounds at various concentrations are prepared in cell normal growth media (100 μL) containing 200-250 μM AMP. Treated cells are cultured at 37° C., 5% CO2 for 68-70 hr.
Medium (160 μl) containing treated PBMCs is transferred to a plate and the remaining medium used for cytokine assay is transferred to AcroPrep 96 plates (AcroPrep 96 Filter plate, Omega 3K NTRL 350 ul well, Pall Life Science Cat #8033) for preparation of samples for LC-MS analysis of metabolites.
Culture medium from treated PBMCs is diluted at 1:7.5, 1:2.5 and 1:50 with 1× ELISA/ELISPOT Diluent from cytokine ELISA kits and analyzed for TNFα using Human TNF alpha ELISA Ready-SET-GO! Kit (eBioscience cat #88-7346-22), IL-1β using Human IL-1β ELISA ready-SET-GO! Kit (2nd generation) (eBioscience, cat #88-7261-22) and IFNγ using Human IFN gamma ELISA ready-SET-GO! Kit (eBioscience, cat #88-7316-22) based manufacturer's manuals.

SMILES: O=c1[nH]cc(-c2cc([C@H]3CC3(F)F)c(Cl)nn2)c(=O)[nH]1 (single isomer, unassigned) [Example 9]
EC50 (CD73): 297 nM

SMILES: Cc1nnc(-c2c[nH]c(=O)[nH]c2=O)cc1[C@H]1C[C@@H]1C(C)C [Example 2, 5-[5-[(1S,2R)-2-isopropylcyclopropyl]-6-methyl-pyridazin-3-yl]-1H-pyrimidine-2,4-dione]
inhibition at 1 mg/kg (murine CD73; 1 mg/kg oral): -10.6%
inhibition at 2.5 mg/kg (murine CD73; 2.5 mg/kg oral): 25.2%
inhibition at 6.4 mg/kg (murine CD73; 6.4 mg/kg oral): 37%
inhibition at 16 mg/kg (murine CD73; 16 mg/kg oral): 56.5%
inhibition at 40 mg/kg (murine CD73; 40 mg/kg oral): 88.6%
inhibition at 100 mg/kg (murine CD73; 100 mg/kg oral): 94.3%
Adenosine (uM) in the growth medium (human PBMCs or CD4 cells; compound 0.00229 uM): 0.28 µM
Rescue of T cell proliferation (%) (human PBMCs or CD4 cells; compound 0.00229 uM): −6%
Adenosine (uM) in the growth medium (human PBMCs or CD4 cells; compound 0.00686 uM): 0.28 µM
Rescue of T cell proliferation (%) (human PBMCs or CD4 cells; compound 0.00686 uM): −3%
Adenosine (uM) in the growth medium (human PBMCs or CD4 cells; compound 0.02058 uM): 0.21 µM
Rescue of T cell proliferation (%) (human PBMCs or CD4 cells; compound 0.02058 uM): −2%
Adenosine (uM) in the growth medium (human PBMCs or CD4 cells; compound 0.06173 uM): 0.15 µM
Rescue of T cell proliferation (%) (human PBMCs or CD4 cells; compound 0.06173 uM): 37%
Adenosine (uM) in the growth medium (human PBMCs or CD4 cells; compound 0.18519 uM): 0.086 µM
Rescue of T cell proliferation (%) (human PBMCs or CD4 cells; compound 0.18519 uM): 95%
Adenosine (uM) in the growth medium (human PBMCs or CD4 cells; compound 0.55556 uM): 0.046 µM
Rescue of T cell proliferation (%) (human PBMCs or CD4 cells; compound 0.55556 uM): 104%
Adenosine (uM) in the growth medium (human PBMCs or CD4 cells; compound 1.66667 uM): 0.027 µM
Rescue of T cell proliferation (%) (human PBMCs or CD4 cells; compound 1.66667 uM): 106%
Adenosine (uM) in the growth medium (human PBMCs or CD4 cells; compound 5.00 uM): 0.017 µM
Rescue of T cell proliferation (%) (human PBMCs or CD4 cells; compound 5.00 uM): 107%
INF-γ release, INF-γ (CD4^+ T cells; compound 0.003 uM): 34.5 pg/mL
TNF-α release, TNF-α (CD4^+ T cells; compound 0.003 uM): 386.3 pg/mL
INF-γ release, INF-γ (CD4^+ T cells; compound 0.008 uM): 29.5 pg/mL
TNF-α release, TNF-α (CD4^+ T cells; compound 0.008 uM): 419.9 pg/mL
INF-γ release, INF-γ (CD4^+ T cells; compound 0.025 uM): 51.1 pg/mL
TNF-α release, TNF-α (CD4^+ T cells; compound 0.025 uM): 557.8 pg/mL
INF-γ release, INF-γ (CD4^+ T cells; compound 0.074 uM): 59.4 pg/mL
TNF-α release, TNF-α (CD4^+ T cells; compound 0.074 uM): 782.0 pg/mL
INF-γ release, INF-γ (CD4^+ T cells; compound 0.222 uM): 146.7 pg/mL
TNF-α release, TNF-α (CD4^+ T cells; compound 0.222 uM): 1265.5 pg/mL
INF-γ release, INF-γ (CD4^+ T cells; compound 2.000 uM): 99.5 pg/mL
TNF-α release, TNF-α (CD4^+ T cells; compound 2.000 uM): 1183.9 pg/mL
INF-γ release, INF-γ (CD4^+ T cells; compound 6.000 uM): 105.3 pg/mL
TNF-α release, TNF-α (CD4^+ T cells; compound 6.000 uM): 1985.5 pg/mL

SMILES: CC[C@H]1C[C@@H]1c1cc(-c2c[nH]c(=O)[nH]c2=O)nnc1C#N [Example 22, 6-(2,4-Dioxo-1H-pyrimidin-5-yl)-4-[(1S,2S)-2-ethylcyclopropyl]pyridazine-3-carbonitrile]
EC50 (CD73): 212 nM

More lines, in order of falling EC50 (CD73), values ahead:

EC50 (CD73): 179 nM
SMILES: CC(C)[C@H]1C[C@@H]1c1cc(-c2c[nH]c(=O)[nH]c2=O)nnc1Cl (relative stereo) [Example 8, 5-[6-Chloro-5-[rel-(1S,2R)-2-isopropylcyclopropyl]pyridazin-3-yl]-1H-pyrimidine-2,4-dione]

EC50 (CD73): 55 nM
SMILES: O=c1[nH]cc(-c2cc([C@H]3C[C@@H]3C(F)F)c(Cl)nn2)c(=O)[nH]1 [Example 10, 5-[6-Chloro-5-[(1S,2S)-2-(difluoromethyl)cyclopropyl]pyridazin-3-yl]-1H-pyrimidine-2,4-dione]
